Read-outs that look alike come from different tables or passages of the source.
What was measured:
[1] = test system: Klebsiella pneumoniae D 11750/08; test: Antibacterial microdilution broth MIC, K. pneumoniae; conditions: 48 h incubation
[2] = test system: Staphylococcus aureus CCM 4516/08; test: Antibacterial microdilution broth MIC, S. aureus; assay type: cell-based; conditions: Staphylococcus aureus, CCM4516; 48 h incubation; read-out: MIC SA 48 h
[3] = test system: Mycobacterium tuberculosis 331/88 (H37Rv); test: In vitro antimycobacterial MIC, M. tuberculosis; assay type: cell-based
[4] = test system: Mycobacterium kansasii 235/80; test: In vitro antimycobacterial MIC, M. kansasii 235/80; assay type: cell-based
[5] = test system: Aspergillus fumigatus 231; test: Antifungal microdilution broth MIC, A. fumigatus; assay type: cell-based
[6] = test system: Pseudomonas aeruginosa CCM 1961; test: Antibacterial microdilution broth MIC, P. aeruginosa; assay type: cell-based; conditions: Pseudomonas aeruginosa, CCM1961; 48 h incubation; read-out: MIC PA 48 h
[7] = test system: Escherichia coli CCM 4517; test: Antibacterial microdilution broth MIC, E. coli; assay type: cell-based; conditions: Escherichia coli
Candida tropicalis 156 = test: Antifungal microdilution broth MIC, C. tropicalis; assay type: cell-based; conditions: Candida tropicalis, 156; 48 h incubation; read-out: MIC CT 48 h
[8] = test system: Staphylococcus epidermidis H 6966/08; test: Antibacterial microdilution broth MIC, S. epidermidis; assay type: cell-based; conditions: Staphylococcus epidermidis, H6966/08
[9] = test system: Enterococcus faecalis J 14365/08; test: Antibacterial microdilution broth MIC, E. faecalis; assay type: cell-based; conditions: Enterococcus faecalis
Trichosporon asahii 1188 = test: Antifungal microdilution broth MIC, T. asahii; assay type: cell-based; conditions: Trichosporon asahii, 1188; 48 h incubation; read-out: MIC TA 48 h
[10] = test system: ESBL-positive Klebsiella pneumoniae J 14368/08; conditions: 48 h incubation
[11] = test system: Trichophyton interdigitale 445; test: Antifungal microdilution broth MIC, T. interdigitale; assay type: cell-based; conditions: Trichophyton interdigitale, 445
Candida glabrata 20/I = test: Antifungal microdilution broth MIC, C. glabrata; assay type: cell-based; conditions: Nakaseomyces glabratus, 48 h incubation, read-out: MIC CG 48 h
[12] = test system: Mycobacterium avium 330/88; test: In vitro antimycobacterial MIC, M. avium; assay type: cell-based
[13] = test system: Lichtheimia corymbifera 272; test: Antifungal microdilution broth MIC, L. corymbifera; assay type: cell-based
[14] = test system: Candida albicans ATCC 44859; test: Antifungal microdilution broth MIC, C. albicans; assay type: cell-based; conditions: ATCC44859, 48 h incubation, read-out: MIC CA 48 h
Candida krusei E28 = test: Antifungal microdilution broth MIC, C. krusei; assay type: cell-based; conditions: Pichia kudriavzevii, E28; 48 h incubation; read-out: MIC CK 48 h
M. kansasii 6509/96 = test: In vitro antimycobacterial MIC, M. kansasii clinical isolate; assay type: cell-based; conditions: Mycobacterium kansasii

O=S(=O)(Nc1ncccn1)c1ccc(N=Cc2cc(I)cc(I)c2O)cc1 [Compound 2p, 4-[(2-Hydroxy-3,5-diiodobenzylidene)amino]-N-(pyrimidin-2-yl)benzenesulfonamide]
3.9 µM: MIC (Trichosporon asahii 1188) | MIC (Candida glabrata 20/I) | MIC [14]
250 µM: MIC ([3]; 336 h, 14 d incubation, read-out: MIC Mtb. 331/88 14 d) | MIC ([3]; 504 h, 21 d incubation, read-out: MIC Mtb. 331/88 21 d) | MIC ([4]; 235/80, 336 h, 14 d incubation, read-out: MIC M. kansasii 235/80 14 d) | MIC ([4]; 235/80, 504 h, 21 d incubation, read-out: MIC M. kansasii 235/80 21 d) | MIC ([12]; 330/88, 336 h, 14 d incubation, read-out: MIC M. avium 330/88 14 d) | MIC (M. kansasii 6509/96; 6509/96, 504 h, 21 d incubation, read-out: MIC M. kansasii 6509/96 21 d)
500 µM: MIC [6] | MIC ([12]; 330/88, 504 h, 21 d incubation, read-out: MIC M. avium 330/88 21 d)
125 µM: MIC KP 48 h [1] | MIC ([4]; 235/80, 168 h, 7 d incubation, read-out: MIC M. kansasii 235/80 7 d) | MIC ([7]; CCM4517, 24 h, read-out: MIC EC 24 h) | MIC ([7]; CCM4517, 48 h, read-out: MIC EC 48 h) | MIC ([9]; J14365/08, 24 h, read-out: MIC EF 24 h) | MIC ([9]; J14365/08, 48 h, read-out: MIC EF 48 h) | MIC KP-E 48 h [10] | MIC (M. kansasii 6509/96; 6509/96, 336 h, 14 d incubation, read-out: MIC M. kansasii 6509/96 14 d)
62.5 µM: MIC ([5]; Aspergillus fumigatus, 231, 24 h, read-out: MIC AF 24 h) | MIC ([5]; Aspergillus fumigatus, 231, 48 h, read-out: MIC AF 48 h) | MIC ([13]; Lichtheimia corymbifera, 272, 24 h, read-out: MIC LC 24 h) | MIC ([13]; Lichtheimia corymbifera, 272, 48 h, read-out: MIC LC 48 h) | MIC (M. kansasii 6509/96; 6509/96, 168 h, 7 d incubation, read-out: MIC M. kansasii 6509/96 7 d)
7.81 µM: MIC [2] | MIC (Candida tropicalis 156) | MIC ([8]; 48 h incubation, read-out: MIC SE 48 h) | MIC ([8]; incubation time not given, read-out: MIC for S. epidermidis) | MIC (Candida krusei E28)
15.6 µM: MIC ([11]; 72 h incubation, read-out: MIC TI 72 h) | MIC ([11]; 120 h incubation, read-out: MIC TI 120 h)

Source: publication PMC6151383 (Molecules : A Journal of Synthetic Chemistry and Natural …, 2017)
